Laboratory results published in ChEMBL document CHEMBL1909046, “DrugMatrix in vitro pharmacology data”.
pIC50: −log10 of the molar value.

How the values were obtained:
Cytochrome P450 2D6 = Cytochrome P450 2D6 (Homo sapiens, UniProt P10635); settings: bti-tn-5b1-4; note: in other assays of this panel Not Active means under 50% inhibition at 10 µM
[1] = molecular target: T1, Type-2 angiotensin II receptor (Homo sapiens, UniProt P50052); type: cell-based; settings: cho-k1; note: in other assays of this panel Not Active means under 50% inhibition at 10 µM
T1 sequence (P50052 whole entry): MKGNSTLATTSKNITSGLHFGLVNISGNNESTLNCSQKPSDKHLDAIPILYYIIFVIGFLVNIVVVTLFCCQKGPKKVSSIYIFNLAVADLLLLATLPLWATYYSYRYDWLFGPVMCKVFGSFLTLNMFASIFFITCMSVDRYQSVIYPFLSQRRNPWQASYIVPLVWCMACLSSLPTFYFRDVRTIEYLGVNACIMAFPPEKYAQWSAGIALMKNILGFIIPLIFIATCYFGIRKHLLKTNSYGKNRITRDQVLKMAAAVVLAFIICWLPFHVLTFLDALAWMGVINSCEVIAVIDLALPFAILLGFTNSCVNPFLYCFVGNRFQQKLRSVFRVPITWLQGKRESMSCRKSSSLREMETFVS

Melanocortin receptor 4 = Melanocortin receptor 4 (Homo sapiens, UniProt P32245); type: cell membranes, Membrane; settings: hek293; note: in other assays of this panel Not Active means under 50% inhibition at 10 µM
Insulin receptor = Insulin receptor (Rattus norvegicus, UniProt P15127); type: cell membranes, Wistar, Liver, Membrane; note: in other assays of this panel Not Active means under 50% inhibition at 10 µM
[2] = molecular target: T2, Cholecystokinin receptor type A (Homo sapiens, UniProt P32238); type: cell membranes, Membrane; settings: 1321-n1; note: in other assays of this panel Not Active means under 50% inhibition at 10 µM
T2 sequence (P32238 whole entry): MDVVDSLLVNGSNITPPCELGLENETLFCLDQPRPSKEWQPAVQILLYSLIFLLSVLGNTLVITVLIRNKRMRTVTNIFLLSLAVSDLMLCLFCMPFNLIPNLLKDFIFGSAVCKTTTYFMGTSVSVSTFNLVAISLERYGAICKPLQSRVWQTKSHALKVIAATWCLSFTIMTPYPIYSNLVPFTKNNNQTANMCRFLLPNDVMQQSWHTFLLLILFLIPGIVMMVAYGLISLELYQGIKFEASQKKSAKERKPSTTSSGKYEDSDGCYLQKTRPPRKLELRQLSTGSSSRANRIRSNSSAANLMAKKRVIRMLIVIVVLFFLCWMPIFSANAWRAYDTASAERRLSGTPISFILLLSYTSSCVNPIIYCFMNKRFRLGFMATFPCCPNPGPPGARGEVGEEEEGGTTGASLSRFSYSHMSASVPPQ

[3] = molecular target: Aldo-keto reductase family 1 member B1 (Rattus norvegicus, UniProt P07943); assay: biochemical; type: tissue-based, Lens of camera-type eye
Substance-K receptor = molecular target: T3, Substance-K receptor (Homo sapiens, UniProt P21452); type: cell membranes, CHO, Membrane; settings: cho; note: in other assays of this panel Not Active means under 50% inhibition at 10 µM
T3 sequence (P21452 whole entry): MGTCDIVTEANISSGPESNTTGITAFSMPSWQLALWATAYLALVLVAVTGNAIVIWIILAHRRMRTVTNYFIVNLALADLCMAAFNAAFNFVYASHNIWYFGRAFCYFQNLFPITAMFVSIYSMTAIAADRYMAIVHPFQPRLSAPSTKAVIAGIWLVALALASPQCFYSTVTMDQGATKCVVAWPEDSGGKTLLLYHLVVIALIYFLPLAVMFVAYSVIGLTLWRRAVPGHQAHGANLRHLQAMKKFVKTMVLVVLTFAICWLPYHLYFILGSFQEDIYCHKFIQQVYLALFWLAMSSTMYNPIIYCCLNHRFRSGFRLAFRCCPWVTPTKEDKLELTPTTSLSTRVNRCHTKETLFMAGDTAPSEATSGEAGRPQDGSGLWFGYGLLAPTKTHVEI

Mu-type opioid receptor = Mu-type opioid receptor (Homo sapiens, UniProt P35372); assay: DRUGMATRIX: Opiate mu (OP3, MOP) radioligand binding (ligand: [3H] Diprenorphine); type: cell membranes, CHO-K1, Membrane; settings: cho-k1; Not Active = under 50% inhibition at 10 µM
Chain of Mu-type opioid receptor (P35372 whole entry): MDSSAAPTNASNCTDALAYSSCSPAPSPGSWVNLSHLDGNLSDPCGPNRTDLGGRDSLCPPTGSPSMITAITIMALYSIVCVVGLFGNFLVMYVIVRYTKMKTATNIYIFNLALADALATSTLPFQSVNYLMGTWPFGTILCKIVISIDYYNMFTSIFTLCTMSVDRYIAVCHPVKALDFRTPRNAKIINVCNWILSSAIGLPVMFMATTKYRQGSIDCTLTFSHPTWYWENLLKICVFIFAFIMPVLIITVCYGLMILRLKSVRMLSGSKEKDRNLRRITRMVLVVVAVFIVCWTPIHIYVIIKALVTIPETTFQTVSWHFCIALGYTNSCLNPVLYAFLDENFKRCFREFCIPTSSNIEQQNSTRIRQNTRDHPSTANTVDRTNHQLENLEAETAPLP

Chain of Insulin receptor (P15127 27-759 limits assumed): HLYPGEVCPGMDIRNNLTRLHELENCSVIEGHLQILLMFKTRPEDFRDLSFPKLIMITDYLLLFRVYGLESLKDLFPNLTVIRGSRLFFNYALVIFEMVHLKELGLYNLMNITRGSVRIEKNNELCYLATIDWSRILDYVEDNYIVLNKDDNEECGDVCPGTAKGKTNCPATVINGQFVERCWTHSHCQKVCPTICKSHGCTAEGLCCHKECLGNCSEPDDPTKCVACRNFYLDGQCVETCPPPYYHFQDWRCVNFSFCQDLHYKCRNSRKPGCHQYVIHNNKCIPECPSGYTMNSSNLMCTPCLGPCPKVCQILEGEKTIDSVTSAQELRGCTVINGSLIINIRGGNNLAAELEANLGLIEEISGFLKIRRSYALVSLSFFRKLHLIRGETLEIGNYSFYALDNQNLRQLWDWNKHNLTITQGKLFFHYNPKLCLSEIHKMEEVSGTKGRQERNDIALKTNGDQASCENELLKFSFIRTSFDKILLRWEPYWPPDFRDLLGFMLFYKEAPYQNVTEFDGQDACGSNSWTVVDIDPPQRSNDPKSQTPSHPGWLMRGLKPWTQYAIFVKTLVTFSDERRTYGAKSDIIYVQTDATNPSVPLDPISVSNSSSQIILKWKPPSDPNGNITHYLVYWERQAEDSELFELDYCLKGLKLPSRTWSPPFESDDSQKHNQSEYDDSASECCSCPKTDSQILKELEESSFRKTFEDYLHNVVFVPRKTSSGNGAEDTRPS
Chain of Insulin receptor (P15127 764-1383 limits assumed): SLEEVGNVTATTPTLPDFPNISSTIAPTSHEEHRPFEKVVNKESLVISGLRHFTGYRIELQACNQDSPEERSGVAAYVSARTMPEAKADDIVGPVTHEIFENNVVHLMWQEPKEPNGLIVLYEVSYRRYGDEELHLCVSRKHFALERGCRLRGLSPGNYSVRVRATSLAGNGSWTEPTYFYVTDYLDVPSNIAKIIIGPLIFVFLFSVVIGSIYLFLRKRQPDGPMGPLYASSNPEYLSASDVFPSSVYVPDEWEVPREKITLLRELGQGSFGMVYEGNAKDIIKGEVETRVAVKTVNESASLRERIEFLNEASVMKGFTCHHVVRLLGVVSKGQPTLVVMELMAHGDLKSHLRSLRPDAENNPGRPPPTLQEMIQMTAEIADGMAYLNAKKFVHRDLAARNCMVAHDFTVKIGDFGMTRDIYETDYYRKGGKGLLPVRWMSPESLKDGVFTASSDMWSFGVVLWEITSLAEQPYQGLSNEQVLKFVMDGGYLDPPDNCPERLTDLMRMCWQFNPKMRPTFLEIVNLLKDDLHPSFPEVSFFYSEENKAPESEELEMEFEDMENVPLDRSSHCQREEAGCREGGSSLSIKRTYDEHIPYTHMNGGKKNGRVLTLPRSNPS
Chain of Melanocortin receptor 4 (P32245 whole entry): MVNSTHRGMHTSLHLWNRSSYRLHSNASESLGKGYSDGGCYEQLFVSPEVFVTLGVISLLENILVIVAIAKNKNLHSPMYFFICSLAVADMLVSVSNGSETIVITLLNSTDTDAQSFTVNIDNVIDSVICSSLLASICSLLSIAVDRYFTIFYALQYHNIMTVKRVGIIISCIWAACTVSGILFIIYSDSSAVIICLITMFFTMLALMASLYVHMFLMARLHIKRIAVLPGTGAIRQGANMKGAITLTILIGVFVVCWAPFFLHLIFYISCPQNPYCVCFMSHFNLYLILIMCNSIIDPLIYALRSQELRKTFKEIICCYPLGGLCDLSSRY
Chain of Cytochrome P450 2D6 (P10635 whole entry): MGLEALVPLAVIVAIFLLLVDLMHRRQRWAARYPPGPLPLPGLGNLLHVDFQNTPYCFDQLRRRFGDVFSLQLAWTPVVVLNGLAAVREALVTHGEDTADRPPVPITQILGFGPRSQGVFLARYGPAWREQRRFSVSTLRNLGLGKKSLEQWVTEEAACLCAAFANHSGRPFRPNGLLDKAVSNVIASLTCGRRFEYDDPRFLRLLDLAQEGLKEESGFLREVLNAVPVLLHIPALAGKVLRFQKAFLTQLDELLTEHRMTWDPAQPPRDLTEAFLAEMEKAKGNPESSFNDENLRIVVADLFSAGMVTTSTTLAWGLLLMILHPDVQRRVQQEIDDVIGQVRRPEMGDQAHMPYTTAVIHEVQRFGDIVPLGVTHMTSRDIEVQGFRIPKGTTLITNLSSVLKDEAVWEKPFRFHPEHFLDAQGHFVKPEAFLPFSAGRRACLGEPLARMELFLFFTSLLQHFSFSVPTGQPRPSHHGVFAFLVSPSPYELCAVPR

Compound | IC50 (Cytochrome P450 2D6) | Ki (Cytochrome P450 2D6) | IC50 [1] | IC50 (Melanocortin receptor 4) | IC50 (Insulin receptor) | IC50 [2] | IC50 [3] | IC50 (Substance-K receptor) | IC50 (Mu-type opioid receptor) | pIC50 ([3]; read-out: IC50)
O=C(NCCN1CCOCC1)c1ccc(Cl)cc1 [MOCLOBEMIDE] | Not Active | Not Active | Not Active | Not Active | Not Active | Not Active | Not Active | Not Active | Not Active | –
C[C@@H]1[C@H](O)[C@@H](C)/C=C/C=C/C=C/C=C/C=C/C=C/C=C/[C@H](O[C@@H]2O[C@H](C)[C@@H](O)[C@H](N)[C@@H]2O)C[C@@H]2O[C@](O)(C[C@@H](O)C[C@@H](O)[C@H](O)CC[C@@H](O)C[C@@H](O)CC(=O)O[C@H]1C)C[C@H](O)[C@H]2C(=O)O [AMPHOTERICIN B] | Not Active | Not Active | Not Active | Not Active | Not Active | Not Active | Not Active | Not Active | Not Active | –
CCC1(c2ccccc2)C(=O)NC(=O)NC1=O [PHENOBARBITAL] | Not Active | Not Active | Not Active | Not Active | Not Active | Not Active | Not Active | Not Active | Not Active | –
CC(C)(C#N)c1cc(Cn2cncn2)cc(C(C)(C)C#N)c1 [ANASTROZOLE] | Not Active | Not Active | Not Active | Not Active | Not Active | Not Active | Not Active | Not Active | Not Active | –
OC[C@H]1O[C@@H]2O[C@H]3[C@H](O)[C@@H](O)[C@@H](O[C@H]4[C@H](O)[C@@H](O)[C@@H](O[C@H]5[C@H](O)[C@@H](O)[C@@H](O[C@H]6[C@H](O)[C@@H](O)[C@@H](O[C@H]7[C@H](O)[C@@H](O)[C@@H](O[C@H]1[C@H](O)[C@H]2O)O[C@@H]7CO)O[C@@H]6CO)O[C@@H]5CO)O[C@@H]4CO)O[C@@H]3CO [ALFADEX] | Not Active | Not Active | Not Active | Not Active | Not Active | Not Active | Not Active | Not Active | Not Active | –
c1ccc2c(c1)Nc1ccccc1S2 [PHENOTHIAZINE] | Not Active | Not Active | Not Active | Not Active | Not Active | Not Active | Not Active | Not Active | Not Active | –
CC[C@H]1OC(=O)[C@H](C)[C@@H](O[C@H]2C[C@@](C)(OC)[C@@H](O)[C@H](C)O2)[C@H](C)[C@@H](O[C@@H]2O[C@H](C)C[C@H](N(C)C)[C@H]2O)[C@](C)(O)C[C@@H](C)C(=O)[C@H](C)[C@@H](O)[C@]1(C)O [ERYTHROMYCIN] | Not Active | Not Active | Not Active | Not Active | Not Active | Not Active | Not Active | Not Active | Not Active | –
O=C(O)COC(=O)Cc1ccccc1Nc1c(Cl)cccc1Cl [ACECLOFENAC] | Not Active | Not Active | Not Active | Not Active | Not Active | Not Active | – | Not Active | Not Active | 5.89
COC(=O)Nc1nc2ccc(Sc3ccccc3)cc2[nH]1 [FENBENDAZOLE] | Not Active | Not Active | Not Active | Not Active | Not Active | Not Active | Not Active | Not Active | Not Active | –
Cc1c(N)nc([C@H](CC(N)=O)NC[C@H](N)C(N)=O)nc1C(=O)N[C@H](C(=O)N[C@H](C)[C@@H](O)[C@H](C)C(=O)N[C@H](C(=O)NCCc1nc(-c2nc(C(=O)NCCC[S+](C)C)cs2)cs1)[C@@H](C)O)[C@@H](O[C@@H]1O[C@@H](CO)[C@@H](O)[C@H](O)[C@@H]1O[C@H]1O[C@H](CO)[C@@H](O)[C@H](OC(N)=O)[C@@H]1O)c1c[nH]cn1.[Br-] [BLEOMYCIN A2] | Not Active | Not Active | Not Active | Not Active | Not Active | Not Active | Not Active | Not Active | Not Active | –
